Data reported in PubChem BioAssay (NCI).
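Results reflect a 48-hour exposure of cells in 96-well plates to compound at five concentrations. The concentration for full growth arrest is given as TGI.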 Where a SMILES comes first, the peptide text is derived from it. The star is where a group is joined. Cbz = O=C(OCc1ccccc1)*

How the values were obtained:
Test in all cases: inhibition of tumour cell growth, NCI panel, 48 h
[1] = system: CCRF-CEM leukemia
[2] = system: HCT-116 colon
[3] = system: M14 melanoma
[4] = system: MCF7 breast
[5] = system: NCI-H23 lung
[6] = system: NCI-H522 lung
[7] = system: OVCAR-3 ovarian
[8] = system: OVCAR-8 ovarian
[9] = system: PC-3 prostate
[10] = system: SF-539 CNS
[11] = system: TK-10 renal

COc1cc2c(cc1O)NC(=O)[C@@H]1CCCN1C2=O
TGI [1]: > 100 µM | TGI [2]: > 100 µM | TGI [3]: > 100 µM | TGI [4]: > 100 µM | TGI [5]: > 100 µM | TGI [6]: > 100 µM | TGI [7]: > 100 µM | TGI [8]: > 100 µM | TGI [9]: > 100 µM | TGI [10]: > 100 µM | TGI [11]: > 100 µM

CC(=O)NC1C(Sc2ncn(C3OC(CO)C(O)C(O)C3NC(C)=O)n2)OC(CO)C(O)C1O (stereo not given)
TGI [1]: > 100 µM | TGI [2]: > 100 µM | TGI [3]: > 100 µM | TGI [4]: > 100 µM | TGI [5]: > 100 µM | TGI [6]: > 100 µM | TGI [7]: > 100 µM | TGI [8]: > 100 µM | TGI [9]: > 100 µM | TGI [10]: > 100 µM | TGI [11]: > 100 µM

O=C1C(Br)=CC2(C=C1Br)CCNC1=C2C(=O)c2ncccc2C1=O
TGI [1]: 6.82 µM | TGI [2]: 1.74 µM | TGI [3]: 3.01 µM | TGI [4]: 2.78 µM | TGI [5]: 1.65 µM | TGI [6]: 1.06 µM | TGI [7]: 4.56 µM | TGI [8]: 4.5 µM | TGI [9]: 8.59 µM | TGI [10]: 0.841 µM | TGI [11]: 4.73 µM

CCOC(=O)CCC(NC(=O)C(Cc1ccccc1)NC(=O)OCc1ccccc1)C(=O)OCC (stereo not drawn) (Cbz-Phe-Glu(OEt)-OEt; configuration not given here)
TGI [1]: > 64.7 µM | TGI [2]: 32.1 µM | TGI [3]: 29.3 µM | TGI [4]: 39.6 µM | TGI [5]: 33.1 µM | TGI [6]: 29.6 µM | TGI [7]: 28.6 µM | TGI [8]: 36.2 µM | TGI [9]: 32.1 µM | TGI [10]: 37.6 µM | TGI [11]: 34.6 µM

CC(=O)SC(C[N+](=O)[O-])c1ccc2c(c1)OCO2 (stereo not given)
TGI [1]: > 46.4 µM | TGI [2]: 5.22 µM | TGI [3]: 15.6 µM | TGI [4]: 6.93 µM | TGI [5]: 34.6 µM | TGI [6]: 10.4 µM | TGI [7]: 16.6 µM | TGI [8]: 28.1 µM | TGI [9]: 28.9 µM | TGI [10]: 5.14 µM | TGI [11]: 28.2 µM

CC(=O)Nc1c(C(=N)C#N)ncn1CCO
TGI [1]: > 100 µM | TGI [2]: > 100 µM | TGI [3]: > 100 µM | TGI [4]: > 100 µM | TGI [5]: > 100 µM | TGI [6]: > 100 µM | TGI [7]: > 100 µM | TGI [8]: > 100 µM | TGI [9]: > 100 µM | TGI [10]: > 100 µM | TGI [11]: > 100 µM

Cc1n[n+](Cc2ccccc2)c2sc(N)nn12
TGI [1]: > 100 µM | TGI [2]: > 100 µM | TGI [3]: > 100 µM | TGI [4]: > 100 µM | TGI [5]: > 100 µM | TGI [6]: 76.2 µM | TGI [7]: > 100 µM | TGI [8]: > 100 µM | TGI [9]: > 100 µM | TGI [10]: > 100 µM | TGI [11]: > 100 µM

O=C1C=C(Nc2ccc(S(=O)(=O)Nc3nccs3)cc2)c2ccccc2C1=O
TGI [1]: 48.1 µM | TGI [2]: > 100 µM | TGI [3]: 42.8 µM | TGI [4]: 36.1 µM | TGI [5]: > 100 µM | TGI [6]: > 100 µM | TGI [7]: 36 µM | TGI [8]: 47.6 µM | TGI [9]: > 100 µM | TGI [10]: 41.2 µM | TGI [11]: > 100 µM

O=P1(Cc2ccccc2)N(Cc2ccccc2)[C@@H]2CCCC[C@H]2N1Cc1ccccc1
TGI [1]: 32.3 µM | TGI [2]: 20 µM | TGI [3]: 16.6 µM | TGI [4]: 23.3 µM | TGI [5]: 23.2 µM | TGI [6]: 14.4 µM | TGI [7]: 20.9 µM | TGI [8]: 23.8 µM | TGI [9]: 15.3 µM | TGI [10]: 33.8 µM | TGI [11]: 26.7 µM

NCCCNCCCCN1CCOC1=O
TGI [1]: > 100 µM | TGI [2]: > 100 µM | TGI [3]: > 100 µM | TGI [4]: > 100 µM | TGI [5]: > 100 µM | TGI [6]: > 100 µM | TGI [7]: > 100 µM | TGI [8]: > 100 µM | TGI [9]: > 100 µM | TGI [10]: > 100 µM | TGI [11]: > 100 µM
